We go through two molecules from patent publication US20230338554A1, “GALACTOSYLATED DENDRIMERS FOR TARGETED INTRACELLULAR DELIVERY TO HEPATOCYTES” (The Johns Hopkins University, priority 2020, published 2023).

Assay [1] relates to severe acetaminophen poisoning. Nature of the assay: Gal-D4-NAC treatment in mouse model of severe acetaminophen poisoning. The class given is in vivo, C57BL6 mice. The method, then:
A model of severe acetaminophen poisoning was established through the administration of 700 mg/kg APAP i.p. to C57BL6 mice (FIG. 12A). There was a high mortality rate, with >90% of mice given APAP overdose dying with 72 hours regardless of treatment with free NAC (FIG. 12B). FIG. 12B represents the survival of healthy sham (black) and saline (red), free NAC (green), and Gal-D4-NAC (blue) treated animals as determined by mass reduction below 80% of the initial animal mass. This model replicates the effects of APAP overdose that result in fulminant liver failure and are considered untreatable with the current clinical NAC regiment. Additionally, to mimic delayed treatment due to late arrival at the hospital, animals eight hours after APAP overdose were also treated as opposed to the pre- and co-treatments with nanoparticles that are typically reported in this model. Both dendrimer and free drug treated animals received 100 mg/kg of NAC, which is […] of the dose that would be administered over 24 hours by i.v. infusion in the clinic.
Next liver necrosis and function were assessed through analysis of images from liver sections isolated at time of death and stained for hematoxylin and eosin. […] After receiving an overdose of APAP, liver structure is essentially destroyed. […]

Assay [2] deals with T1, ASGPR (Homo sapiens, UniProt P07306).
T1 sequence (P07306 1-291): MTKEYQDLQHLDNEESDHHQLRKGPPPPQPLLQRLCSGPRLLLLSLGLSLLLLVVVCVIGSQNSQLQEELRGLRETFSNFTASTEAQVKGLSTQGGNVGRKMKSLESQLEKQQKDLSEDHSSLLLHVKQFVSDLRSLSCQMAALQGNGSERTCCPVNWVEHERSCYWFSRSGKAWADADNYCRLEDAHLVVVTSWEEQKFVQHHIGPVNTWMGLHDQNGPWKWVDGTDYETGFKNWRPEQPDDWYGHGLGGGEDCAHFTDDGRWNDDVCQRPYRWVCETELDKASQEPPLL
Particulars: cited from earlier work.

`CC(=O)N[C@@H](CS)C(=O)O` [free NAC, N-acetyl cysteine] displayed a mice dying in assay [1] (700 mg/kg APAP i.p., 72 hours) of over 90%. The “liver architecture / liver health” value in assay [1] (single i.v. dose 100 mg/kg on a NAC basis) was “unable to have any effect on liver health”.

Consider `CC(=O)N[C@H]1C(O)O[C@H](CO)[C@H](O)[C@@H]1O` (stereo partly drawn) [N-acetylgalactosamine (GalNAc), N-acetylgalactosamine], for which, in assay [2], the “monovalent binding affinity to ASGPR” value was “micromolar scale”.
